Laboratory results: patent publication US4061776A, “Pharmaceutically active 2-omega-aminoalkoxydiphenyl ethers” (Mitsubishi Chemical Industries Ltd., priority 1976, dated 1977)
Where a name gives a salt, the structure may show the parent alone.

Columns and labels:
[1] = tested on: reserpine induced hypothermia; assay: antagonism of reserpine (5 mg/kg i.p.) induced hypothermia (antireserpine/antidepressant activity) in mice; format: in vivo; details: for Antireserpine Activity in Mice, Relative Potency: reserpine 5 mg/kg i.p., Amitriptyline = 1; for antidepressant activity (in words): reserpine hypothermia
Protocol: (§1) The compounds were administered intraperitoneally and activities of the compounds were compared with those of Amitriptyline.

[2] = in vivo; details: mouse, ip
[3] = tested on: tremorine induced tremor; assay: central anticholinergic effect, tremorine induced tremor in mice; details: Mus musculus, ip, read-out: Antitremorine Effect ED50
Protocol: as §1

[4] = tested on: spontaneous motor activity; assay: CNS depressant activity, spontaneous motor activity measured by ANIMEX apparatus in mice; details: Mus musculus, ip, read-out: Spontaneous Motor Activity Depression ED50
Protocol: as §1

[5] = tested on: mice; details: i.p.
[6] = tested on: neurological deficit as measured by traction test; assay: CNS depressant activity, neurological deficit by traction test (muscle relaxant action) in mice; details: Mus musculus, ip, read-out: Muscle Relaxant Action ED50
Protocol: as §1

[7] = tested on: electroshock induced tonic extensor; assay: anticonvulsant activity, antagonism of electroshock induced tonic extensor in mice; format: in vivo; details: Mus musculus, ip, dose preventing 50% of response, read-out: Anti-Convulsant Activity ED50
Protocol: as §1

[8] = tested on: neurological deficit as measured by traction test; details: mouse, in vivo, ip
Protocol: as §1

[9] = tested on: tremorine induced tremor; details: mouse, in vivo, ip
Protocol: as §1

SMILES	Antireserpine Activity in Mice, Relative Potency [1]	LD50 [2] [mg/kg]	antidepressant activity (in words) [1]	other results
CN(C)CCCOc1ccccc1Oc1ccccc1 [2-(3-dimethylaminopropoxy)diphenyl ether hydrochloride, reference compound]	0.14			
CN(C)CCCCOc1ccccc1Oc1ccccc1 [2-(4-dimethylaminobutoxy)diphenyl ether hydrochloride]	0.58	92	best activity of all compounds of the present invention tested	
CN(C)CCCCCOc1ccccc1Oc1ccccc1 [2-(5-dimethylaminopentyloxy)diphenyl ether hydrochloride]	0.24			
CNCCCOc1ccccc1Oc1ccccc1 [2-(3-methylaminopropoxy)diphenyl ether hydrochloride, reference compound]	0.28			
c1ccc(Oc2ccccc2OCCCCN2CCOCC2)cc1 [2-(4-morpholinobutoxy)diphenyl ether hydrochloride, reference compound]	0.21			
CNCCCCCOc1ccccc1Oc1ccccc1 [2-(5-methylaminopentyloxy)diphenyl ether hydrochloride]	0.57	85	best activity of all compounds of the present invention tested	
NCCCCOc1ccccc1Oc1ccccc1 [2-(4-aminobutoxy)diphenyl ether hydrochloride]	0.28			
CNCCCCOc1ccccc1Oc1ccccc1 [2-(4-methylaminobutoxy)diphenyl ether hydrochloride]	1.10	100	best activity of all compounds of the present invention tested	ED50 [3]: 30 mg/kg; ED50 [4]: 60 mg/kg; toxicity (in words) [5]: low toxicity; ED50 [6]: 60 mg/kg; ED50 [7]: 32 mg/kg; CNS depressant action (in words) [8]: weak; antireserpine activity compared with Amitriptyline (in words) ([1]; versus Amitriptyline): comparable to that of Amitriptyline; anticholinergic action (in words) [9]: weak
CN(C)CCC=C1c2ccccc2CCc2ccccc21 [Amitriptyline, reference compound]				LD50 ([5]; Litchfield-Wilcoxon method): 65 mg/kg i.p.
